The values that follow come from patent publication US11541121B2, “Phosphorothioate-conjugated peptides and methods of using the same” (CITY OF HOPE, priority 2017, dated 2023).

The subject of assay [1] is IL-6/gp130/STAT3 target genes. Kind of assay: RT-PCR of IL-6/gp130/STAT3 acute-phase target genes in IL-6 stimulated HepG2 cells. The format is cell-based, human. The following applies: 1.0 μM, 24 h upon IL-6 stimulation. The procedure: Human hepatoma cells HepG2 were treated as indicated with 1.0 μM gp130-peptide (i.e., IL6-65 represents phosphorothioate elongated SEQ ID NO:4, IL6-96 represents phosphorothioate elongated SEQ ID NO:8, and IL-63 represents phosphorothioate elongated SEQ ID NO:9) for 24 h upon IL-6 stimulation. mRNA was isolated and target gene expression was assessed by RT-PCR. SD shown; T-test: *) P<0.05, **) P<0.01, ***) P<0.001.
Interleukin-6 (IL-6) signaling feeds intracellular STAT3 activity by binding to the extracellular domain of IL-6Ralpha (gp80) recruiting the signaling co-receptors IL-6Rbeta (gp130). IL-6 engagement to these receptors leads to the phosphorylation of 6 tyrosine residues in the cytoplasmic tail of gp130; 3 of those phospho-tyrosines (pY767, pY905 and pY915) serve as the major docking sites recognized by STAT3s SH2 domain initiating STAT3 intracellular signaling. Applicants disclose these three gp130-peptides modified by phosphorothioated ssDNA extension (FIG. 13) considerably reduce expression of a repertoire of IL-6/gp130/STAT3 target genes orchestrating the acute-phase inflammatory response (FIG. 15) once they undergo cellular internalization (FIG. 14).

The test system of assay [2] is IL-6/gp130 signaling; EGFR signaling. Kind of assay: IL-6 versus EGF stimulated signaling in HepG2 cells (STAT3 and MAPK p42/44 Western blot). The format is cell-based, human. Particulars: 1.0 μM, 30 min prior to IL-6 or EGF stimulation. How it is done: Human hepatoma cells HepG2 were treated as indicated with 1.0 μM gp130-peptide peptide (i.e., 65 is phosphorothioate elongated SEQ ID NO:4, 96 is phosphorothioate elongated SEQ ID NO:8, and 63 is phosphorothioate elongated SEQ ID NO:9) for either 30 min prior to IL-6 or EGF stimulation. Whole cell lysates were subjected to electrophoretic protein separation and STAT3 as well as MAPK (p42/44) activity was assessed by Western blot. Total STAT3 and MAPK (p42/44) protein staining was included as a loading control.
For orientation: In western blotting, separated proteins are transferred to a membrane and probed.

The subject of assay [3] is survivin (BIRC5) and BclXL (BCL2L1). Kind of assay: RT-PCR of cancer cell survival genes in HepG2 cells. It counts as cell-based, human. The following applies: 1.0 μM, 24 h upon IL-6 stimulation. The procedure:
Human hepatoma cells HepG2 were treated as indicated with 1.0 μM gp130-peptide (i.e., IL6-65 represents phosphorothioate elongated SEQ ID NO:4, IL6-96 represents phosphorothioate elongated SEQ ID NO:8, and IL-63 represents phosphorothioate elongated SEQ ID NO:9) for 24 h upon IL-6 stimulation. mRNA was isolated and target gene expression was assessed by RT-PCR. SD shown; T-test: ***) P<0.001.

For a further assay, the system named is pY-STAT3. Kind of assay: pY-STAT3 Western blot in IL-6 stimulated HepG2 cells. Particulars: 1.0 μM, 30 min prior to IL-6 stimulation. It counts as cell-based, human. How it is done: FIG. 16: gp130-peptide treatment of cancer cells inhibits pY-STAT3 activation. Human hepatoma cells HepG2 were treated as indicated with 1.0 μM gp130-peptide peptide (i.e., 2263165 is phosphorothioate elongated SEQ ID NO:4, 1209196 is phosphorothioate elongated SEQ ID NO:8, and 2263163 is phosphorothioate elongated SEQ ID NO:9) for either 30 min prior to IL-6 stimulation. Whole cell lysates were subjected to electrophoretic protein separation and STAT3 activity was assessed by Western blot detecting phospho-tyrosine. Total STAT3 protein staining was included as a loading control.
Human hepatoma cells HepG2 were treated as indicated with 1.0 uM gp130-peptide for either 30 min prior to IL-6 stimulation. Whole cell lysates were subjected to electrophoretic protein separation and STAT3 activity was assessed by Western blot detecting phospho-tyrosine. Total STAT3 protein staining was included as a loading control.

For assay [4], the system named is W76964 (mouse pancreatic cancer cell line) cells. Kind of assay: Cell penetration in W76964 cells (flow cytometry). The format is cell-based. The following applies: 1×10^6 cells, 10 μg, 2 hours at 37° C. The procedure:
FIGS. 29A-29B: Combination treatment of cell-penetrating Gp130-inhibitory peptide (i.e., Gp130 peptide) and c-MYC-inhibitory peptide (i.e., c-MYC binding peptide) (SEQ ID NO:10) suppresses tumor growth in a syngeneic mouse model of pancreatic cancer. FIG. 29A. […] 1×10^6 cells were incubated with 10 μg of PS-GP130- or PS-c-MYC-peptide for 2 hours at 37° C. […] FIG. 29B. W76964 cells were engrafted in C57BL/6 mice to generate tumors. After tumor size reached approximately 80 mm^3, PO-Gp130 or PS-GP130 was mixed with PS-c-MYC-inhibitory peptide (1:1 ratio) to treat mice systemically (i.v.) at 20 μg every other day. Tumor size was measured by a caliber. Tumor volume was calculated (V=(L×W×W)), where V is tumor volume, W is tumor width, L is tumor length. When some tumors start to reach 600 mm^3, all groups of mice were euthanized at the same time using protocols approved by IACUC of City of Hope. N=6 as indicated.
1×10^6 cells were incubated with 10 μg of PS-GP130- or PS-c-MYC-peptide for 2 hours at 37° C. […] W76964 cells were engrafted in C57BL/6 mice to generate tumors (FIG. 29B). […] Tumor size was measured by a caliber. Tumor volume was calculated (V=(L×W×W)), where V is tumor volume, W is tumor width, L is tumor length. […]
Background: A flow cytometer gives signals particle by particle.

Where no end group is shown, it is not given here. [ ]: non-standard residue; d: D form. pY = N[C@@H](Cc1ccc(OP(=O)(O)O)cc1)C(=O)O

As for “PS-1209196: phosphorothioate elongated SEQ ID NO:8, gp130 peptide phosphorylated at tyrosine 905, MPKSpYLPQTV (MPKS[pY]LPQTV; also: phosphorothioate elongation)”, the “expression of IL-6/gp130/STAT3 target genes of the acute-phase inflammatory response” value in assay [1] is “significantly reduces”. In assay [2], the “specificity: IL-6/gp130 signaling versus EGF/EGFR signaling” value is given as “specifically inhibits IL-6/gp130 signaling but not EGFR signaling”. Moreover, the “expression of survival genes survivin (BIRC5) and BclXL (BCL2L1)” value (from here on “expression of survival genes survivin”) in assay [3] is “significantly reduces”. The “pY-STAT3 levels / STAT3 activity” value with pY-STAT3 is recorded as “inhibitory efficacy”.

For the substance “PS-2263163: phosphorothioate elongated SEQ ID NO:9, gp130 peptide phosphorylated at tyrosine 915, RQGGpYMPQ (RQGG[pY]MPQ; also: phosphorothioate elongation)”, in assay [1], the “expression of IL-6/gp130/STAT3 target genes of the acute-phase inflammatory response” value is “significantly reduces”. In addition, the “specificity: IL-6/gp130 signaling versus EGF/EGFR signaling” value in assay [2] is on record as “specifically inhibits IL-6/gp130 signaling but not EGFR signaling”. In addition, in assay [3], the “expression of survival genes survivin” value is listed as “significantly reduces”. Also, in the assay with pY-STAT3, the “pY-STAT3 levels / STAT3 activity” value is given as “inhibitory efficacy”.

As for “PS-2263165: phosphorothioate elongated SEQ ID NO:4, gp130 peptide phosphorylated at tyrosine 767, VHSGpYRHQVPS (VHSG[pY]RHQVPS; also: phosphorothioate elongation)”, in assay [1], the “expression of IL-6/gp130/STAT3 target genes of the acute-phase inflammatory response” value is “significantly reduces”. Also, the “specificity: IL-6/gp130 signaling versus EGF/EGFR signaling” value in assay [2] is recorded as “specifically inhibits IL-6/gp130 signaling but not EGFR signaling”. Besides, the “expression of survival genes survivin” value in assay [3] was “significantly reduces”. Further, the “pY-STAT3 levels / STAT3 activity” value with pY-STAT3 was “inhibitory efficacy”.

With “PS-c-MYC-inhibitory peptide: phosphorothioate-conjugated c-MYC binding peptide SEQ ID NO:10 KNDTHQQDIDDLK (also: phosphorothioate-conjugated)”, in assay [4], the “cell penetration, flow cytometry” value is on record as “cell penetration”.
